Molecular target: mGluR5 (Homo sapiens, UniProt P41594)
Assay: inhibition of the glutamate induced elevation of intracellular Ca2+ concentration
Conditions: for inhibition at 10 µM: read-out: mGluR5 Activity inh. at 10 μM [%]
Excerpt: This can be determined in vitro for example at recombinant human metabotropic glutamate receptors, especially PLC-coupled subtypes thereof such as mGluR5, using different procedures like, for example, measurement of the inhibition of the agonist induced elevation of intracellular Ca^2+ concentration in accordance with L. P. Daggett et al., Neuropharm.

Chain of mGluR5 (P41594 21-1180 isoform P41594-2 limits assumed): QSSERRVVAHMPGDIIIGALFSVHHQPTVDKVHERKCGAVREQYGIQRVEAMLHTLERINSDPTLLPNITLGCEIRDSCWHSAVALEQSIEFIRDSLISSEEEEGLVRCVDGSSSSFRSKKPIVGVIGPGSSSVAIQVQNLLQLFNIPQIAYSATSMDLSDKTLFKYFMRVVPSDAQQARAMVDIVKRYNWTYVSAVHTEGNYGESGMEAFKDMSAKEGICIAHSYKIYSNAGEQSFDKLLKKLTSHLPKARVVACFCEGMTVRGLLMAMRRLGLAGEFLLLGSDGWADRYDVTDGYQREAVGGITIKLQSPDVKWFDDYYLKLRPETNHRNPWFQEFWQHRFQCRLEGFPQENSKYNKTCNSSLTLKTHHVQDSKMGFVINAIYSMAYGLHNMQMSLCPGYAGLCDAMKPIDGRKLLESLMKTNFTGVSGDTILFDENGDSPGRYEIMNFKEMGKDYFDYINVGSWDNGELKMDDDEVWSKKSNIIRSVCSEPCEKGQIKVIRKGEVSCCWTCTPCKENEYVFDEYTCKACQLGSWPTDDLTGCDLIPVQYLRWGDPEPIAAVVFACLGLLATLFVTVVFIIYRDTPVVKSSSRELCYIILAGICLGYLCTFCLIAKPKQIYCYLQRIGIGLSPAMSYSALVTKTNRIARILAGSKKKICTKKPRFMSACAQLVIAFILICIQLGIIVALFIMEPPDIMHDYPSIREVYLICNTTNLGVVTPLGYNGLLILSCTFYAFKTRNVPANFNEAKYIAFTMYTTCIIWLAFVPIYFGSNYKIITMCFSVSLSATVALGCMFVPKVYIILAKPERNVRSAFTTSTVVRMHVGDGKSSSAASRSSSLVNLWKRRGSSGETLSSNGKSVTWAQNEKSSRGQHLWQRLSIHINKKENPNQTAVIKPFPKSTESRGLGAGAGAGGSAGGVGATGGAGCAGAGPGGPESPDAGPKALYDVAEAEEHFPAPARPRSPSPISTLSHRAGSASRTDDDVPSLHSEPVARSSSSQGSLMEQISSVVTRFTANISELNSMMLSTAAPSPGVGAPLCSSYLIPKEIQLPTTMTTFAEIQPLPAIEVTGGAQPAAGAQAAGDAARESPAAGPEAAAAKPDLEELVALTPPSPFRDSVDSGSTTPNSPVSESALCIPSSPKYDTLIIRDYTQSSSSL

Row | mGluR5 Activity inh. at 10 μM [%] (inhibition of glutamate induced elevation of intracellular Ca2+ concentration at 10 μM) | inhibition at 10 µM [%] | Compound
1 | 97 | – | C/C=C\C1CCCCN1C(=O)c1cnc(Nc2ccc(C)nc2)c(Cl)c1 (centres unmarked) [Compound 4.56, [5-Chloro-6-(6-methyl-pyridin-3-ylamino)-pyridin-3-yl]-[((Z)-2-propenyl)-piperidin-1-yl]-methanone]
2 | – | 93 | CCC=C1CCCN(C(=O)c2cnc(Nc3ccc(C)nc3)c(Cl)c2)C1 [Compound 4.58, [5-Chloro-6-(6-methyl-pyridin-3-ylamino)-pyridin-3-yl]-[3-propylidene-piperidin-1-yl]-methanone]
3 | – | 97 | CCOCC1CCCCN1C(=O)c1cnc(Nc2ccc(C)nc2)c(Cl)c1 (centres unmarked) [Compound 4.60, [5-Chloro-6-(6-methyl-pyridin-3-ylamino)-pyridin-3-yl]-(2-ethoxymethyl-piperidin-1-yl)-methanone]
4 | – | 79 | Cc1ccc(Nc2ncc(C(=O)N3CCCCC3CCO)cc2Cl)cn1 (centres unmarked) [Compound 4.61, [5-Chloro-6(6-methyl-pyridin-3-ylamino)-pyridin-3-yl]-[2-(2-hydroxy-ethyl)-piperidin-1-yl]-methanone]
5 | – | 99 | CCCC1CCC(F)CN1C(=O)c1cnc(Nc2ccc(C)nc2)c(Cl)c1 (centres unmarked) [Compound 4.62, [5-Chloro-6-(6-methyl-pyridin-3-ylamino)-pyridin-3-yl]-(5-fluoro-2-propyl-piperidin-1-yl)-methanone]
6 | – | 100 | Cc1ccc(Nc2ncc(C(=O)N3CCCCC3C(F)C(C)F)cc2Cl)cn1 (centres unmarked) [Compound 4.63, [5-Chloro-6-(6-methyl-pyridin-3-ylamino)-pyridin-3-yl]-[2-(1,2-difluoro-propyl)-piperidin-1-yl]-methanone]
7 | – | 99 | Cc1ccc(Nc2ncc(C(=O)N3CCCCC3CC(C)F)cc2Cl)cn1 (centres unmarked) [Compound 4.64, [5-Chloro-6-(6-methyl-pyridin-3-ylamino)-pyridin-3-yl]-[2-(2-fluoro-propyl)-piperidin-1-yl]-methanone]
8 | – | 83 | CCC1OCCCCN1C(=O)c1cnc(Nc2ccc(C)nc2)c(Cl)c1 (centres unmarked) [Compound 4.65, [5-Chloro-6-(6-methyl-pyridin-3-ylamino)-pyridin-3-yl]-(2-ethyl-[1,3]oxazepan-3-yl)-methanone]
9 | – | 91 | CCCC1OCCCCN1C(=O)c1cnc(Nc2ccc(C)nc2)c(Cl)c1 (centres unmarked) [Compound 4.66, [5-Chloro-6-(6-methyl-pyridin-3-ylamino)-pyridin-3-yl]-(2-propyl-[1,3]oxazepan-3-yl)-methanone]
10 | – | 95 | CCC(CC)C1OCCCCN1C(=O)c1cnc(Nc2ccc(C)nc2)c(Cl)c1 (centres unmarked) [Compound 4.67, [5-Chloro-6-(6-methyl-pyridin-3-ylamino)-pyridin-3-yl]-[2-(1-ethyl-propyl)-[1,3]oxazepan-3-yl]-methanone]
11 | – | 99 | CCCC1OCCCN1C(=O)c1cnc(Nc2ccc(C)nc2)c(Cl)c1 (centres unmarked) [Compound 4.68, [5-Chloro-6-(6-methyl-pyridin-3-ylamino)-pyridin-3-yl]-(2-propyl-[1,3]oxazinan-3-yl)-methanone]
12 | – | 99 | CCC(CC)C1OCCCN1C(=O)c1cnc(Nc2ccc(C)nc2)c(Cl)c1 (centres unmarked) [Compound 4.69, [5-Chloro-6-(6-methyl-pyridin-3-ylamino)-pyridin-3-yl]-[2-(1-ethyl-propyl)-[1,3]oxazinan-3-yl]-methanone]
13 | – | 96 | CCCCC1OCCCN1C(=O)c1cnc(Nc2ccc(C)nc2)c(Cl)c1 (centres unmarked) [Compound 4.70, (2-Butyl-[1,3]oxazinan-3-yl)-[5-chloro-6-(6-methyl-pyridin-3-ylamino)-pyridin-3-yl]-methanone]
14 | – | 99 | COCCC1CCCCN1C(=O)c1cnc(Nc2ccc(C)nc2)c(Cl)c1 (centres unmarked) [Compound 4.71, [5-Chloro-6-(6-methyl-pyridin-3-ylamino)-pyridin-3-yl]-[2-(2-methoxy-ethyl)-piperidin-1-yl]-methanone]
15 | – | 97 | Cc1ccc(Nc2ncc(C(=O)N3CCCC3c3ccccc3)cc2Cl)cn1 (centres unmarked) [Compound 4.72, [5-Chloro-6-(6-methyl-pyridin-3-ylamino)-pyridin-3-yl]-(2-phenyl-pyrrolidin-1-yl)-methanone]
16 | – | 72 | Cc1ccc(Nc2ncc(C(=O)N3CCCC3c3ccccn3)cc2Cl)cn1 (centres unmarked) [Compound 4.73, [5-Chloro-6-(6-methyl-pyridin-3-ylamino)-pyridin-3-yl]-(2-pyridin-2-yl-pyrrolidin-1-yl)-methanone]
17 | – | 92 | CCO[C@@H]1CCCN1C(=O)c1cnc(Nc2ccc(C)nc2)c(Cl)c1 [Compound 4.74, [5-Chloro-6-(6-methyl-pyridin-3-ylamino)-pyridin-3-yl]-((R)-2-ethoxy-pyrrolidin-1-yl)-methanone]
18 | – | 96 | Cc1ccc(Nc2ncc(C(=O)N3CCCC3c3ccc(C)s3)cc2Cl)cn1 (centres unmarked) [Compound 4.75, [5-Chloro-6-(6-methyl-pyridin-3-ylamino)-pyridin-3-yl]-[2-(5-methyl-thiophen-2-yl)-pyrrolidin-1-yl]-methanone]
19 | – | 92 | CCCC1CCCCCN1C(=O)c1cnc(Nc2ccc(C)nc2)c(Cl)c1 (centres unmarked) [Compound 4.76, [5-Chloro-6-(6-methyl-pyridin-3-ylamino)-pyridin-3-yl]-(2-propyl-azepan-1-yl)-methanone]
20 | – | 100 | CCCC1COCCN1C(=O)c1cnc(Nc2ccc(C)nc2)c(Cl)c1 (centres unmarked) [Compound 4.77, [5-Chloro-6-(6-methyl-pyridin-3-ylamino)-pyridin-3-yl]-(3-propyl-morpholin-4-yl)-methanone]
21 | – | 98 | O=C(c1cnc(Nc2ccc(Cl)cc2)c(Cl)c1)N1CCCCCC1 [Compound 5.1, Azepan-1-yl-[5-chloro-6-(4-chloro-phenylamino)-pyridin-3-yl]-methanone]
22 | – | 87 | O=C(c1cnc(Nc2ccc(Cl)cc2)nc1)N1CCCCCC1 [Compound 5.3, Azepan-1-yl-[2-(4-chloro-phenylamino)-pyrimidin-5-yl]-methanone]
23 | – | 83 | O=C(c1cnc(Nc2ccc(Cl)cc2)nc1)N1CCCCC1 [Compound 5.4, [2-(4-Chloro-phenylamino)-pyrimidin-5-yl]-piperidin-1-yl-methanone]
24 | – | 97 | COc1cc(C(=O)N2CCCCCC2)cnc1Nc1ccc(Cl)cc1 [Compound 6.1, Azepan-1-yl-[6-(4-chloro-phenylamino)-5-methoxy-pyridin-3-yl]-methanone]
25 | – | 95 | COc1cc(C(=O)N2CCCCC2)cnc1Nc1ccc(Cl)cc1 [Compound 6.3, [6-(4-Chloro-phenylamino)-5-methoxy-pyridin-3-yl]-piperidin-1-yl-methanone]
26 | – | 98 | COc1cc(C(=O)N2CCCCC2)cnc1Nc1ccc(C)nc1 [Compound 6.4, [5-Methoxy-6-(6-methyl-pyridin-3-ylamino)-pyridin-3-yl]-piperidin-1-yl-methanone]
27 | – | 33 | CCOc1cc(C(=O)N2CCCCCC2)cnc1Nc1ccc(Cl)cc1 [Compound 6.5, Azepan-1-yl-[6-(4-chloro-phenylamino)-5-ethoxy-pyridin-3-yl]-methanone]
28 | – | 54 | CCOc1cc(C(=O)N2CCCCCC2)cnc1Nc1ccc(C)nc1 [Compound 6.6, Azepan-1-yl-[5-ethoxy-6-(6-methyl-pyridin-3-ylamino)-pyridin-3-yl]-methanone]
29 | – | 35 | CCOc1cc(C(=O)N2CCCCC2)cnc1Nc1ccc(C)nc1 [Compound 6.7, [5-Ethoxy-6-(6-methyl-pyridin-3-ylamino)-pyridin-3-yl]-piperidin-1-yl-methanone]

Source: patent US20090005363A1, “Organic Compounds” (priority 2005, published 2009)
